Test results taken from paper PMC5963640 (Journal of Ocular Pharmacology and Therapeutics, 2018).
Like-named read-outs stand apart in the source and are kept apart here. Blank lines part the entries; values can stand above or below the compound they belong to.

Experiments:
[1] = biological target: T1, myotonic dystrophy kinase-related CDC42-binding kinase alpha (MRCKA) (Homo sapiens, UniProt Q5VT25); test: Kinase-Glo luminescent protein kinase assay, MRCKA; format: biochemical; settings: average of ≥3 replicate experiments
T1 construct: purchased Upstate
T1 sequence (Q5VT25 whole entry): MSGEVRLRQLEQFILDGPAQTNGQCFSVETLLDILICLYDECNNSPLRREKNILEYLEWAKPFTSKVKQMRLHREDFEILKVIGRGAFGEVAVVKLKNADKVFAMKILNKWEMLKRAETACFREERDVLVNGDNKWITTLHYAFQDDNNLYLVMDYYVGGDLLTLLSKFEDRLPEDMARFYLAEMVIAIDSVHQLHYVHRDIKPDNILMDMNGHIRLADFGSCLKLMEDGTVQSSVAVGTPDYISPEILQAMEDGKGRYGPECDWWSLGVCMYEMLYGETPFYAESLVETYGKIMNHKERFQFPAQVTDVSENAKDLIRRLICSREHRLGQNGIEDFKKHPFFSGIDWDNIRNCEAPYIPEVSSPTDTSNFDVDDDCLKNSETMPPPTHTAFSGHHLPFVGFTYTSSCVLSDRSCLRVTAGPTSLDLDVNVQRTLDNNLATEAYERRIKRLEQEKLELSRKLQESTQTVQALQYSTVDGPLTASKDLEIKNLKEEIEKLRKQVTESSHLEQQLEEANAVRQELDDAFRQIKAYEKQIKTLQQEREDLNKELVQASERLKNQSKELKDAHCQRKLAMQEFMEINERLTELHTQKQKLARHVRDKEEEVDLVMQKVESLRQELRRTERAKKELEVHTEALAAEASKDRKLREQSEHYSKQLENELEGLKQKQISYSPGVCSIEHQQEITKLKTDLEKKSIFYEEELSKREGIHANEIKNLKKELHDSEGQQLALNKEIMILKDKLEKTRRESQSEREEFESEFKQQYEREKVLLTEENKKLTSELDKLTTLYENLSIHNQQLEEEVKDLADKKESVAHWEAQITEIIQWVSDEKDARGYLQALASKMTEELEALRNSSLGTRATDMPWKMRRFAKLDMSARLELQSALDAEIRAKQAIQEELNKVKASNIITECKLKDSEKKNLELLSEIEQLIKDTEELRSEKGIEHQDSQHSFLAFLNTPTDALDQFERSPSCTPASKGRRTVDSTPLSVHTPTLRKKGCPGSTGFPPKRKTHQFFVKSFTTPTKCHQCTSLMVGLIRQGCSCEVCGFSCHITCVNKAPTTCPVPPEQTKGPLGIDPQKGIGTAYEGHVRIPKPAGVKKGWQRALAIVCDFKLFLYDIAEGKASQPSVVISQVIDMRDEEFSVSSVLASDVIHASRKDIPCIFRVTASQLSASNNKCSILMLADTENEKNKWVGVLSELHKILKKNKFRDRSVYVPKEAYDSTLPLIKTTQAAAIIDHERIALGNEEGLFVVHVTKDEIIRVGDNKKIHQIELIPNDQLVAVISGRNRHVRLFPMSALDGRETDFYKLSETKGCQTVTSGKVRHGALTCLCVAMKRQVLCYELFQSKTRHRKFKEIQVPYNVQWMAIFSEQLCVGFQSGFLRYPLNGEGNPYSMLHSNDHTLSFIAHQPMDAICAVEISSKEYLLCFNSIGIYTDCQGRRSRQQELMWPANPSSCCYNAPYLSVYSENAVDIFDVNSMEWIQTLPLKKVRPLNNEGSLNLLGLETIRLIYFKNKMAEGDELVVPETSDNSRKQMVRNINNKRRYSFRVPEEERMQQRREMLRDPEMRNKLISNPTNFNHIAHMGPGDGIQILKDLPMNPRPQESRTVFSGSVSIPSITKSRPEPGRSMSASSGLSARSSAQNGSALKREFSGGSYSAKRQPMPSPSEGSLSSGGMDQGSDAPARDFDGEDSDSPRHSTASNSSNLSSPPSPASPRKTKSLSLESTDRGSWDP

[2] = test system: transformed human TM (HTM) cells (TM-1); test: Disruption of focal adhesions, high-content screening; format: cell-based; settings: 6 h incubation, read-out: HTM IC50 (disruption of focal adhesions)
[3] = biological target: T2, calcium/calmodulin-dependent protein kinase II Alpha (CAMK2A) (Homo sapiens, UniProt Q9UQM7); test: Kinase-Glo luminescent protein kinase assay, CAMK2A; format: biochemical; settings: average of ≥3 replicate experiments; read-out: CAM2A Ki
T2 construct: purchased Invitrogen/Life Technologies
T2 sequence (Q9UQM7 whole entry): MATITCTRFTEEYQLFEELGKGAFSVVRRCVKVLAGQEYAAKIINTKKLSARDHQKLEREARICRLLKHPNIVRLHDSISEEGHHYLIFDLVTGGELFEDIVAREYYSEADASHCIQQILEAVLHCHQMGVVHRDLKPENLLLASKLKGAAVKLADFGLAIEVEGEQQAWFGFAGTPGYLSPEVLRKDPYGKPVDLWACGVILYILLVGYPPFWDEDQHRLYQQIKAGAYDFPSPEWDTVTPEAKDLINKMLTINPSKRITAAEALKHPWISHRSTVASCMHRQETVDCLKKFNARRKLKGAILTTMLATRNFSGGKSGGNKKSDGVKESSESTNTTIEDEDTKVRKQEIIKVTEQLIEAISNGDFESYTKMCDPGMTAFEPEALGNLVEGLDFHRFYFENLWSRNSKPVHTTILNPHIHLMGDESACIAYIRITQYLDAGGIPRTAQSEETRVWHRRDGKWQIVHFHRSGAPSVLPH

[4] = biological target: T3, protein kinase C-theta (PKC-theta) (Homo sapiens, UniProt Q04759); test: Kinase-Glo luminescent protein kinase assay, PKC-theta; format: biochemical; settings: average of ≥3 replicate experiments; read-out: PKCT Ki
T3 construct: purchased Invitrogen/Life Technologies
T3 sequence (Q04759 whole entry): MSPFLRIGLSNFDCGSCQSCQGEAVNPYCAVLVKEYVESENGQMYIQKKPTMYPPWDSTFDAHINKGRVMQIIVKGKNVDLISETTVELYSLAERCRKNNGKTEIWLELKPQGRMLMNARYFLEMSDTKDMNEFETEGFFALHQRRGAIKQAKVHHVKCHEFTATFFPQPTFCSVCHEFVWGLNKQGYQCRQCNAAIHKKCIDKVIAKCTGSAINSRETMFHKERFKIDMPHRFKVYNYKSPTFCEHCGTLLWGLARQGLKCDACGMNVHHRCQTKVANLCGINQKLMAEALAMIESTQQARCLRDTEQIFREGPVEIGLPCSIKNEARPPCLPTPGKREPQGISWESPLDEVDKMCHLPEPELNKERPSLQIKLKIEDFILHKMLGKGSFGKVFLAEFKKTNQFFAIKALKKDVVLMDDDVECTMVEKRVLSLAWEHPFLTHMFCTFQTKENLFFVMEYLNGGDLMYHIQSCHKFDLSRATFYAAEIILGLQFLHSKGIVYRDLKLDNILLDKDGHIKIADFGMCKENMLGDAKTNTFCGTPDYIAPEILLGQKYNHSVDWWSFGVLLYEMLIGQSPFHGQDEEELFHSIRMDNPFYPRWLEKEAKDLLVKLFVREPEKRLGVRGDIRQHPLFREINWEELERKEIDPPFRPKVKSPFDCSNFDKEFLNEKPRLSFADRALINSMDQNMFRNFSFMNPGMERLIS

[5] = test system: normotensive Dutch Belted rabbits; test: Ocular hypotensive activity (IOP) in rabbits
[6] = test system: primary porcine TM (PTM) cells; test: Disruption of actin stress fibers, high-content screening; format: cell-based; settings: for IC50: Sus scrofa, 6 h incubation, read-out: PTM IC50 (disruption of actin stress fibers)
[7] = test system: normotensive Formosan Rock monkeys; test: Ocular hypotensive activity (IOP) in monkeys; settings: 0.5%, Day 3
[8] = Absorption and distribution of radioactivity after single topical ocular dose; format: in vivo, Dutch Belted rabbits; settings: for AUClast / Cmax / T1/2,e / Tmax: 14C-netarsudil 0.02% single topical ocular dose
Experimental: A single topical ocular dose of 0.02% ^14C-netarsudil mesylate (35 μL drop) was administered to both eyes of 3 male Dutch Belted rabbits in each of 7 groups. At 0.25, 0.5, 1, 4, 8, 24, and 48 h postdose, the following samples were harvested from each group: whole blood, derived plasma, AH, vitreous humor, cornea, conjunctiva, lens, iris/ciliary body, retina-choroid-plexus, liver, and kidneys. All samples were assayed for total radioactivity. A study of the same design was conducted for AR-12286, using a single topical ocular dose of 0.5% ^3H-AR-12286 (35 μL drop).

ROCK1 = biological target: T4, ROCK1 (Homo sapiens, UniProt Q13464); test: Kinase-Glo luminescent protein kinase assay, ROCK1; format: biochemical; settings: ROCK1 and ROCK2
T4 construct: purchased Invitrogen/Life Technologies
T4 sequence (Q13464 whole entry): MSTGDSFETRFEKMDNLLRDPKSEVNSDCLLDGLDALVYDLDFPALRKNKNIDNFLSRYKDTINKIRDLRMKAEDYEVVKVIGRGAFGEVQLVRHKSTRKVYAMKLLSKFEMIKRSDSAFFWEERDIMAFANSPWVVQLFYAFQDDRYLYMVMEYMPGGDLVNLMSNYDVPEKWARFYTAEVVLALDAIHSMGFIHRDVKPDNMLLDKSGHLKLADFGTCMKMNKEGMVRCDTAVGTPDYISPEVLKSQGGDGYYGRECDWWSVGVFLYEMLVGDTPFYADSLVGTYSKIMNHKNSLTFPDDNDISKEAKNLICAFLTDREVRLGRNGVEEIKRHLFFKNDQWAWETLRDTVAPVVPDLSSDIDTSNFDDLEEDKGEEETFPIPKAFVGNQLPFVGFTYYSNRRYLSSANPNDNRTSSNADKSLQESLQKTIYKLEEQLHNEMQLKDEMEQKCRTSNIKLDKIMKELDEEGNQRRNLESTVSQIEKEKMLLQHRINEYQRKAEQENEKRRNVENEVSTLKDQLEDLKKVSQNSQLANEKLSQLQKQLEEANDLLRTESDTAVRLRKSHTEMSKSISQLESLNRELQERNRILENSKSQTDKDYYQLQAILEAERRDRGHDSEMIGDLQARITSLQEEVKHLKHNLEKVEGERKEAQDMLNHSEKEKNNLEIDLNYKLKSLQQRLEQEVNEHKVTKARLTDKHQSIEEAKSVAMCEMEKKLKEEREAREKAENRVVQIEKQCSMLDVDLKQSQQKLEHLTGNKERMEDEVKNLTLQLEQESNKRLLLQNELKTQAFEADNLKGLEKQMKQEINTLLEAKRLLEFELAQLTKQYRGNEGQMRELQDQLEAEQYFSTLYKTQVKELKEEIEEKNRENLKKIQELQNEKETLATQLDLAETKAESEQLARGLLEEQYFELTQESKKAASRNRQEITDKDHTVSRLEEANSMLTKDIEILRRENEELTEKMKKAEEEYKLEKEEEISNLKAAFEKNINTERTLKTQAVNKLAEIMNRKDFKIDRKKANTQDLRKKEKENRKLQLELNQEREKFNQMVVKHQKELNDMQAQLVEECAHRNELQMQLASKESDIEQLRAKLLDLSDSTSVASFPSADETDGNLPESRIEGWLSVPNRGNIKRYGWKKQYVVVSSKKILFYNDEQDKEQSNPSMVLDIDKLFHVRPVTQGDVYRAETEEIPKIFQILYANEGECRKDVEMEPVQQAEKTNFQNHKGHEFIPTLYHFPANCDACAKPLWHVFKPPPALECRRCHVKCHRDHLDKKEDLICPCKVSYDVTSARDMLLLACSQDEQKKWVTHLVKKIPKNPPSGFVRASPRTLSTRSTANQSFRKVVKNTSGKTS

mouse eyes = settings: eyes perfused ∼1 h, cited from earlier work
human donor eyes = settings: perfused for 3 h; cited from earlier work
[9] = biological target: norepinephrine transporter (NET) (Homo sapiens, UniProt P23975); test: NET inhibitory activity (data not shown)
Chain of norepinephrine transporter (NET) (P23975 whole entry, species assumed): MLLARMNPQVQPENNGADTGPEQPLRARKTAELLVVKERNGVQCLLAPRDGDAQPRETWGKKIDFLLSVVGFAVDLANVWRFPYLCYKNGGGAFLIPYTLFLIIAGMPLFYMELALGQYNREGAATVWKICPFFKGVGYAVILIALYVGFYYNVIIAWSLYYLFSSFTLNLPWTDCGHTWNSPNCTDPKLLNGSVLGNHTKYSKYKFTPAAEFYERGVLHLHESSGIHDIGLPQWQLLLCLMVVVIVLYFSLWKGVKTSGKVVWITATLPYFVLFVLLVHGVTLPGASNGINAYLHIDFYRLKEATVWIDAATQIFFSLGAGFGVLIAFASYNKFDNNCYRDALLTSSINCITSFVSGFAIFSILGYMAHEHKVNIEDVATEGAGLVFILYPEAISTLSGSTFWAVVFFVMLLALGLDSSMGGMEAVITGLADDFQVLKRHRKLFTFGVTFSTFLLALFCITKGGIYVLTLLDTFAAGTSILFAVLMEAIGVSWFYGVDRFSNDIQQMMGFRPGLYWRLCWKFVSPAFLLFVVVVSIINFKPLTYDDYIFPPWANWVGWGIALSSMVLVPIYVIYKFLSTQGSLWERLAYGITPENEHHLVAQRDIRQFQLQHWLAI

[10] = male, Dutch Belted, rabbit, in vivo, topical or ocular
[11] = Aqueous humor, L eye, radioactivity
[12] = Aqueous humor, R eye, radioactivity
[13] = Conjuctiva, L eye, radioactivity
[14] = Conjuctiva, R eye, radioactivity
[15] = Iris-ciliary body, L eye, radioactivity
[16] = Iris-ciliary body, R eye, radioactivity
[17] = Retina-choroid-plexus, L eye, radioactivity
[18] = Retina-choroid-plexus, R eye, radioactivity
[19] = Vitreous humor, L eye, radioactivity
[20] = Vitreous humor, R eye, radioactivity

Compound: O=S(=O)(c1cccc2cnccc12)N1CCCNCC1 [Fasudil, reference compound]
IC50 [2]: 3.94 µM
IC50 [6]: 10.1 µM

Compound: CC(N)[C@H]1CC[C@H](C(=O)Nc2ccncc2)CC1 (stereo partly drawn) [Y27632, reference compound]
IC50 [2]: 1.74 µM
IC50 [6]: 9.97 µM

Compound: Cc1ccc(C(=O)OCc2ccc([C@@H]([14CH2]N)C(=O)Nc3ccc4cnccc4c3)cc2)c(C)c1 [^14C-Netarsudil]
AUClast [8, 11]: 510 ng·eq·h/g
Cmax [8, 11]: 16 ng·eq/g
T1/2,e [8, 11]: 17 h
Tmax [8, 11]: 8 h
AUClast [8, 12]: 613 ng·eq·h/g
Cmax [8, 12]: 23 ng·eq/g
T1/2,e [8, 12]: 16 h
Tmax [8, 12]: 8 h
AUClast ([8]; Blood, radioactivity): 15 ng·eq·h/g
Cmax ([8]; Blood, radioactivity): 1 ng·eq/g
T1/2,e ([8]; Blood, radioactivity): 27 h
Tmax ([8]; Blood, radioactivity): 0.25 h
AUClast [8, 13]: 9,525 ng·eq·h/g
Cmax [8, 13]: 2,442 ng·eq/g
T1/2,e [8, 13]: 13 h
Tmax [8, 13]: 0.25 h
AUClast [8, 14]: 12,390 ng·eq·h/g
Cmax [8, 14]: 3,292 ng·eq/g
T1/2,e [8, 14]: 17 h
Tmax [8, 14]: 0.25 h
AUClast ([8]; Cornea, L eye, radioactivity): 63,387 ng·eq·h/g
Cmax ([8]; Cornea, L eye, radioactivity): 3,666 ng·eq/g
T1/2,e ([8]; Cornea, L eye, radioactivity): 14 h
Tmax ([8]; Cornea, L eye, radioactivity): 0.5 h
AUClast ([8]; Cornea, R eye, radioactivity): 69,605 ng·eq·h/g
Cmax ([8]; Cornea, R eye, radioactivity): 3,972 ng·eq/g
T1/2,e ([8]; Cornea, R eye, radioactivity): 13 h
Tmax ([8]; Cornea, R eye, radioactivity): 0.25 h
AUClast [8, 15]: 10,845 ng·eq·h/g
Cmax [8, 15]: 955 ng·eq/g
Tmax [8, 15]: 0.25 h
AUClast [8, 16]: 11,555 ng·eq·h/g
Cmax [8, 16]: 416 ng·eq/g
T1/2,e [8, 16]: 112 h
Tmax [8, 16]: 8 h
AUClast ([8]; Kidney, radioactivity): 298 ng·eq·h/g
Cmax ([8]; Kidney, radioactivity): 19 ng·eq/g
T1/2,e ([8]; Kidney, radioactivity): 16 h
Tmax ([8]; Kidney, radioactivity): 1 h
AUClast ([8]; Lens, L eye, radioactivity): 33 ng·eq·h/g
Cmax ([8]; Lens, L eye, radioactivity): 2 ng·eq/g
T1/2,e ([8]; Lens, L eye, radioactivity): 99 h
Tmax ([8]; Lens, L eye, radioactivity): 0.25 h
AUClast ([8]; Lens, R eye, radioactivity): 37 ng·eq·h/g
Cmax ([8]; Lens, R eye, radioactivity): 2 ng·eq/g
T1/2,e ([8]; Lens, R eye, radioactivity): 83 h
Tmax ([8]; Lens, R eye, radioactivity): 0.25 h
AUClast ([8]; Liver, radioactivity): 88 ng·eq·h/g
Cmax ([8]; Liver, radioactivity): 6 ng·eq/g
T1/2,e ([8]; Liver, radioactivity): 13 h
Tmax ([8]; Liver, radioactivity): 1 h
AUClast ([8]; Plasma, radioactivity): 24 ng·eq·h/g
Cmax ([8]; Plasma, radioactivity): 1 ng·eq/g
T1/2,e ([8]; Plasma, radioactivity): 16 h
Tmax ([8]; Plasma, radioactivity): 0.5 h
AUClast [8, 17]: 1,390 ng·eq·h/g
Cmax [8, 17]: 80 ng·eq/g
T1/2,e [8, 17]: 204 h
Tmax [8, 17]: 0.25 h
AUClast [8, 18]: 1,298 ng·eq·h/g
Cmax [8, 18]: 50 ng·eq/g
T1/2,e [8, 18]: 68 h
Tmax [8, 18]: 0.5 h
AUClast [8, 19]: 51 ng·eq·h/g
Cmax [8, 19]: 7 ng·eq/g
T1/2,e [8, 19]: 12 h
Tmax [8, 19]: 0.25 h
AUClast [8, 20]: 51 ng·eq·h/g
Cmax [8, 20]: 4 ng·eq/g
T1/2,e [8, 20]: 15 h
Tmax [8, 20]: 0.25 h
Tmax in AH ([8]; netarsudil 0.02% single topical ocular dose, radioactivity): 8 h

Further compounds by falling IC50 [2], results first:

Ki [1]: 0.028 µM
IC50 [2]: 0.818 µM
Ki [3]: 5.85 µM
Ki [4]: 9.32 µM
IC50 [6]: 0.924 µM
T1/2,e values [8, 10]: 9 to 41 h
Tmax in AH [8, 10]: 0.25 to 0.5 h
terminal elimination half-life (T1/2,e) in AH [8, 10]: 9 to 11 h
Compound: CN(C)C(C(=O)Nc1ccc2c(=O)[nH]ccc2c1)c1ccsc1 (stereo not drawn) [AR-12286]
IOP reduction ([5]; 0.5%, 8 h after dosing on Day 3): 2.9 ± 0.2 mmHg
time of peak IOP-lowering efficacy after dosing ([5]; Day 1): 0.5 h
IOP reduction ([7]; 4 h after dosing): 5.6 ± 0.3 mmHg
IOP reduction ([7]; 24 h after dosing): 3.9 ± 0.3 mmHg

fold greater activity against Rho kinase than netarsudil (ROCK1): 5 fold
Ki [1]: 0.007 µM
IC50 [2]: 0.003 µM
Ki [3]: 13.7 µM
Ki [4]: 0.027 µM
IC50 [6]: 0.022 µM
NET inhibitory activity [9]: does not inhibit NET
Compound: NC[C@@H](C(=O)Nc1ccc2cnccc2c1)c1ccc(CO)cc1 [Netarsudil-M1]
increase in outflow facility (mouse eyes; C57 mice): 56%
increase in outflow facility (mouse eyes; CD1 mice): 91%
increase in outflow facility relative to control eyes (human donor eyes): 59.7%
fold greater activity than netarsudil for disruption of actin stress fibers and focal adhesions ([6]; PTM and HTM cell-based assays): ~5 fold
